The target of assay [1] is T1, HCV NS3/4A protease complex (BMS strain) (UniProt P27958, C1454S/C1711G, species not given).
T1 construct: for H77 and J4L6S; fused on or other part: Three-lysine solubilising tail at the C-terminus of NS4A
The assay is described as follows: Recombinant HCV NS3/4A protease complex FRET peptide assay. Format: biochemical, Hepatitis C virus (HCV), genotype 1a. The settings on record: NS3/4A BMS strain, activity range class. An excerpt: Recombinant HCV NS3/4A Protease Complex FRET Peptide Assay
Serum from an HCV-infected patient was obtained from Dr. T. Wright, San Francisco Hospital. An engineered full-length cDNA (compliment deoxyribonucleic acid) template of the HCV genome (BMS strain) was constructed from DNA fragments obtained by reverse transcription-PCR (RT-PCR) of serum RNA (ribonucleic acid) and using primers selected on the basis of homology between other genotype 1a strains.
The H77 and J4L6S strains were used for production of recombinant NS3/4A protease complexes. […] Briefly, a three-lysine solubilizing tail was added at the 3′-end of the NS4A coding region. […] Briefly, the NS3/4A protease complex expression was induced with 0.5 millimolar (mM) Isopropyl β-D-1-thiogalactopyranoside (IPTG) for 22 hours (h) at 20° C. […] The cells were resuspended in lysis buffer (10 mL/g) consisting of 25 mM N-(2-Hydroxyethyl)piperazine-N′-(2-Ethane Sulfonic acid) (HEPES), pH 7.5, 20% glycerol, 500 mM Sodium Chloride (NaCl), 0.5% Triton X-100, 1 microgram/milliliter (“μg/mL”) lysozyme, 5 mM Magnesium Chloride (MgCl2), 1 μg/ml DnaseI, 5 mM β-Mercaptoethanol (βME), Protease inhibitor—Ethylenediamine Tetraacetic acid (EDTA) free (Roche), homogenized and incubated for 20 minutes (min) at 4° C. The homogenate was sonicated and clarified by ultra-centrifugation at 235000 g for 1 h at 4° C. Imidazole was added to the supernatant to a final concentration of 15 mM and the pH adjusted to 8.0. The crude protein extract was loaded on a Nickel—Nitrilotriacetic acid (Ni-NTA) column pre-equilibrated with buffer B (25 mM HEPES, pH 8.0, 20% glycerol, 500 mM NaCl, 0.5% Triton X-100, 15 mM imidazole, 5 mM βME). The sample was loaded at a flow rate of 1 mL/min. The column was washed with 15 column volumes of buffer C (same as buffer B except with 0.2% Triton X-100). The protein was eluted with 5 column volumes of buffer D (same as buffer C except with 200 mM Imidazole).
NS3/4A protease complex-containing fractions were pooled and loaded on a desalting column Superdex-S200 pre-equilibrated with buffer D (25 mM HEPES, pH 7.5, 20% glycerol, 300 mM NaCl, 0.2% Triton X-100, 10 mM βME). Sample was loaded at a flow rate of 1 mL/min. NS3/4A protease complex-containing fractions were pooled and concentrated to approximately 0.5 mg/ml.
The enzyme was stored at −80° C., thawed on ice and diluted prior to use in assay buffer. […] The sequence of this peptide is loosely based on the NS4A/NS4B natural cleavage site for the HCV NS3 protease except there is an ester linkage rather than an amide bond at the cleavage site. The peptide substrate was incubated with one of the three recombinant NS3/4A protease complexes, in the absence or presence of a compound of the present invention, and the formation of fluorescent reaction product was followed in real time using a Cytofluor Series 4000.
The reagents were as follow: HEPES and Glycerol (Ultrapure) were obtained from GIBCO-BRL. Dimethyl Sulfoxide (DMSO) was obtained from Sigma. β-Mercaptoethanol was obtained from Bio Rad.
Assay buffer: 50 mM HEPES, pH 7.5; 0.15 M NaCl; 0.1% Triton; 15% Glycerol; 10 mM βME. Substrate: 2 μM final concentration (from a 2 mM stock solution in DMSO stored at −20° C.). HCV NS3/4A protease type 1a (1b), 2–3 nM final concentration (from a 5 μM stock solution in 25 mM HEPES, pH 7.5, 20% glycerol, 300 mM NaCl, 0.2% Triton-X100, 10 mM βME).
The assay was performed in a 96-well polystyrene black plate from Falcon.

The test system of assay [2] is HCV replicon in Huh7 cells. The assay is described as follows: microbe, parasite or virus in culture. The settings on record: Hepatitis C virus, Huh-7, 96 h; Huh7 cells expressing HCV replicon, 4 days; activity range class. Format: cell-based, strain 1b. An excerpt: Generation of HCV Replicon
This system enabled us to evaluate the effects of our HCV Protease compounds on HCV RNA replication. Briefly, using the HCV strain 1b sequence described in the Lohmann paper (Assession number: AJ238799), an HCV cDNA was generated encoding the 5′ internal ribosome entry site (IRES), the neomycin resistance gene, the EMCV (encephalomyocarditis viurs)-IRES and the HCV nonstructural proteins, NS3-NS5B, and 3′ non-translated region (NTR). In vitro transcripts of the cDNA were transfected into the human hepatoma cell line, Huh7. […] Resulting cell lines were characterized for positive and negative strand RNA production and protein production over time.
Huh7 cells, constitutively expressing the HCV replicon, were grown in Dulbecco's Modified Eagle Media (DMEM) containing 10% Fetal calf serum (FCS) and 1 mg/ml G418 (Gibco-BRL). Cells were seeded the night before (1.5×10^4 cells/well) in 96-well tissue-culture sterile plates. Compound and no compound controls were prepared in DMEM containing 4% FCS, 1:100 Penicillin/Streptomysin, 1:100 L-glutamine and 5% DMSO in the dilution plate (0.5% DMSO final concentration in the assay). Compound/DMSO mixes were added to the cells and incubated for 4 days at 37° C. After 4 days, plates were rinsed thoroughly with Phosphate-Buffered Saline (PBS) (3 times 150 μl). The cells were lysed with 25 μl of a lysis assay reagent containing the FRET peptide (RET S1, as described for the in vitro enzyme assay). The lysis assay reagent was made from 5× cell Luciferase cell culture lysis reagent (Promega #E153A) diluted to 1× with distilled water, NaCl added to 150 mM final, the FRET peptide diluted to 10 μM final from a 2 mM stock in 100% DMSO. The plate was then placed into the Cytofluor 4000 instrument which had been set to 340 nm excitation/490 nm emission, automatic mode for 21 cycles and the plate read in a kinetic mode. EC50 determinations were carried out as described for the IC50 determinations. […]
The percentage inhibition was calculated using the formula below: […]
The values were graphed and analyzed using XLFit to obtain the EC50 value.

Where two headings read alike, the source gives them in different places.

Consider `C=C[C@@H]1C[C@]1(NC(=O)[C@@H]1C[C@@H](Oc2nccc3cc(OC)ccc23)CN1C(=O)[C@@H](NC(=O)OC(C)(C)C)C(C)(C)C)C(=O)NS(=O)(=O)C1(C)CC1` [Cmpd 301, (1-{4-(6-Methoxy-isoquinolin-1-yloxy)-2-[1-(1-methyl-cyclopropanesulfonylaminocarbonyl)-2-vinyl-cyclopropylcarbamoyl]-pyrrolidine-1-carbonyl}-2,2-dimethyl-propyl)-carbamic acid tert-butyl ester], for which the IC50 in assay [1] (read-out: IC50) was less than 100 nM. For the same compound, in assay [2], the EC50 was less than 100 nM.

With `C=C[C@@H]1C[C@]1(NC(=O)[C@@H]1C[C@@H](Oc2nccc3cc(OC)ccc23)CN1C(=O)[C@@H](NC(=O)OC(C)(C)C)C(C)(C)C)C(=O)NS(=O)(=O)C1(CCC)CC1` [Cmpd 302, (1-{4-(6-Methoxy-isoquinolin-1-yloxy)-2-[1-(1-propyl-cyclopropanesulfonylaminocarbonyl)-2-vinyl-cyclopropylcarbamoyl]-pyrrolidine-1-carbonyl}-2,2-dimethyl-propyl)-carbamic acid tert-butyl ester], the IC50 in assay [1] (read-out: IC50) was less than 100 nM. In assay [2], the EC50 is less than 100 nM.

Consider `C=C[C@@H]1C[C@]1(NC(=O)[C@@H]1C[C@@H](Oc2nccc3cc(OC)ccc23)CN1C(=O)[C@@H](NC(=O)OC(C)(C)C)C(C)(C)C)C(=O)NS(=O)(=O)C1(Cc2ccccc2)CC1` [Cmpd 303, {1-[2-[1-(1-Benzyl-cyclopropanesulfonylaminocarbonyl)-2-vinyl-cyclopropylcarbamoyl]-4-(6-methoxy-isoquinolin-1-yloxy)-pyrrolidine-1-carbonyl]-2,2-dimethyl-propyl}-carbamic acid tert-butyl ester], for which the IC50 in assay [1] (read-out: IC50) fell in the range of 100 to 1000 nM. The same compound came in with an EC50 in assay [2] of 100 to 1000 nM.

For `C=C[C@@H]1C[C@]1(NC(=O)[C@@H]1C[C@@H](Oc2nccc3cc(OC)ccc23)CN1C(=O)[C@@H](NC(=O)OC(C)(C)C)C(C)(C)C)C(=O)NS(=O)(=O)C1(Cl)CC1` [Cmpd 304, {1-[2-[1-(1-Chloro-cyclopropanesulfonylaminocarbonyl)-2-vinyl-cyclopropylcarbamoyl]-4-(6-methoxy-isoquinolin-1-yloxy)-pyrrolidine-1-carbonyl]-2,2-dimethyl-propyl}-carbamic acid tert-butyl ester], the IC50 in assay [1] (read-out: IC50) is less than 100 nM. The EC50 in assay [2] is less than 100 nM.

As to `C=C[C@@H]1C[C@]1(NC(=O)[C@@H]1C[C@@H](Oc2nccc3ccccc23)CN1C(=O)[C@@H](NC(=O)OC(C)(C)C)C(C)(C)C)C(=O)NS(=O)(=O)C1(CC2CC2)CC1` [Cmpd 400], the IC50 in assay [1] is less than 100 nM. The compound further had an EC50 in assay [2] of 100 to 1000 nM.

For the compound `C=C[C@@H]1C[C@]1(NC(=O)[C@@H]1C[C@@H](Oc2nccc3ccccc23)CN1C(=O)[C@@H](NC(=O)OC(C)(C)C)C(C)(C)C)C(=O)NS(=O)(=O)C1(Cc2ccccc2)CC1` [Cmpd 401], the IC50 in assay [1] was in the range of 100 to 1000 nM. The compound further registered an EC50 in assay [2] of 100 to 1000 nM.

In the case of `C=C[C@@H]1C[C@]1(NC(=O)[C@@H]1C[C@@H](Oc2cc(-c3ccccc3)nc3c(C)noc23)CN1C(=O)[C@@H](NC(=O)OC(C)(C)C)C(C)(C)C)C(=O)NS(=O)(=O)C1(Cc2ccccc2)CC1` [Cmpd 500], in assay [1] (read-out: IC50), the IC50 was less than 100 nM. Besides, in assay [2], the EC50 fell in the range of 100 to 1000 nM.

Consider `C=C[C@@H]1C[C@]1(NC(=O)[C@@H]1C[C@@H](Oc2cc(-c3ccccc3)nc3c(C)noc23)CN1C(=O)[C@@H](NC(=O)OC(C)(C)C)C(C)(C)C)C(=O)NS(=O)(=O)C1(CCC)CC1` [Cmpd 501], for which the IC50 in assay [1] is less than 100 nM. Besides, in assay [2], the concentration for a half-maximal effect (EC50) is 100 to 1000 nM.

`CCCC1(S(=O)(=O)NC(=O)[C@@]2(NC(=O)[C@@H]3C[C@@H](Oc4cc(-c5ccccc5)nc5c(C)noc45)CN3C(=O)[C@@H](NC(=O)OC(C)(C)C)C(C)(C)C)C[C@H]2CC)CC1` [Cmpd 502]: the 50% inhibitory concentration (IC50) in assay [1] was in the range of 100 to 1000 nM. The EC50 in assay [2] lay in the range of 100 to 1000 nM.

For `C=C[C@@H]1C[C@]1(NC(=O)C1C[C@@H](Oc2nc(-c3ccccc3)nc3ccccc23)CN1C(=O)[C@@H](NC(=O)OC(C)(C)C)C(C)(C)C)C(=O)NS(=O)(=O)C1(CC2CC2)CC1` (some centres unmarked) [Cmpd 600], the IC50 in assay [1] (read-out: IC50) is less than 100 nM. In addition, the EC50 in assay [2] was less than 100 nM.

With `C=C[C@@H]1C[C@]1(NC(=O)[C@@H]1C[C@@H](Oc2nc(-c3ccccc3)nc3ccccc23)CN1C(=O)[C@@H](NC(=O)OC(C)(C)C)C(C)(C)C)C(=O)NS(=O)(=O)C1(Cc2ccccc2)CC1` [Cmpd 601], in assay [1] (read-out: IC50), the IC50 is less than 100 nM. Moreover, the EC50 in assay [2] fell in the range of 100 to 1000 nM.

Turning to `C=C[C@@H]1C[C@]1(NC(=O)[C@@H]1C[C@@H](Oc2nc(-c3ccccc3)nc3ccccc23)CN1C(=O)[C@@H](N)C(C)(C)C)C(=O)NS(=O)(=O)C1(CC2CC2)CC1` [Cmpd 602], the IC50 in assay [1] (read-out: IC50) fell in the range of 100 to 1000 nM. The EC50 in assay [2] lay within 1000 to 10000 nM.

As to `C=C[C@@H]1C[C@]1(NC(=O)[C@@H]1C[C@@H](Oc2nc(-c3ccccc3)nc3ccccc23)CN1C(=O)[C@@H](NC(C)=O)C(C)(C)C)C(=O)NS(=O)(=O)C1(CC2CC2)CC1` [Cmpd 604], the IC50 in assay [1] (read-out: IC50) was less than 100 nM. This compound showed an EC50 in assay [2] of 100 to 1000 nM.

As for `C=C[C@@H]1C[C@]1(NC(=O)[C@@H]1C[C@@H](Oc2nc(-c3ccccc3)nc3ccccc23)CN1C(=O)[C@@H](NC(=O)c1cnccn1)C(C)(C)C)C(=O)NS(=O)(=O)C1(CC2CC2)CC1` [Cmpd 605], the IC50 in assay [1] (read-out: IC50) is 100 to 1000 nM. The compound also returned an EC50 in assay [2] of 1000 to 10000 nM.

On to `C=C[C@@H]1C[C@]1(NC(=O)[C@@H]1CC(Oc2ccnc(-c3cccs3)c2)CN1C(=O)[C@@H](NC(=O)OC1CCCC1)C(C)(C)C)C(=O)NS(=O)(=O)C1(CC2CC2)CC1` (some centres unmarked) [Cmpd 700], for which the IC50 in assay [1] (read-out: IC50) is less than 100 nM. In assay [2], this compound showed an EC50 of less than 100 nM.

Regarding `C=C[C@@H]1C[C@]1(NC(=O)[C@@H]1CC(Oc2ccnc(-c3cccs3)c2)CN1C(=O)[C@@H](NC(=O)OC1CCCC1)C(C)(C)C)C(=O)NS(=O)(=O)C1(Cc2ccccc2)CC1` (some centres unmarked) [Cmpd 701], the IC50 in assay [1] (read-out: IC50) was less than 100 nM. For the same compound, in assay [2], the EC50 lay within 100 to 1000 nM.

Source of the values: patent publication US7135462B2, “Hepatitis C virus inhibitors” (priority 2003, dated 2006).
